The experiment has as its system hair follicles. In words: Hair growth in 4-month old female mice, topical application to shaved dorsal skin. Type of experiment: in vivo. As to the method: The marked areas of the mice were applied by spreading topically on the exposed skin areas 60 μl of aqueous solutions of bovine lactoferrin (200 mg/ml), 60 μl of control vehicle (water), and 60 μl of bovine lactoferricin, obtained as set forth in Example 3, (200 mg/ml) twice daily. Observation for hair growth in the marked areas is made daily after the first treatment. […] The hair growth-promoting effect of lactoferrin or lactoferricin was consistently observed in all tested mice. Although lactoferricin was prepared by the method described in Example 3 above, the present invention should not be limited to use only lactoferricin prepared in such manner. Lactoferricin prepared by other methods would still fall within the scope of the present invention.

For lactoferricin, the “amount of hair growth compared with area treated with lactoferrin of the same amount” value (200 mg/ml topically twice daily, 10 days) is on record as “greater amount of hair growth”. The “hair growth observed in the treated skin area” value (60 μl of 200 mg/ml topically twice daily, after 10 days, not seen with control vehicle) is “prominent hair growth”.

These data come from patent US8178486B2, “Method for promoting hair growth” (Animal Technology Institute Taiwan, priority 2005, dated 2012).
